Active and inactive are the calls of the source. The rule behind the calls is not given here.
Columns and labels:
HeLa [1] = assay: Induction of apoptosis in human HeLa cells assessed as dead cells at 10 uM after 12 hrs by Anexin-V-FITC/propidium iodide staining-based flow cytometry (reference value: 1.40%); type: functional
HeLa [2] = assay: Cell cycle arrest in human HeLa cells assessed as accumulation at G1 phase at 10 uM after 48 hrs by propidium iodide stainin-based flow cytometry (reference value: 31.44%); type: functional
HeLa [3] = assay: Cell cycle arrest in human HeLa cells assessed as accumulation at S phase at 10 uM after 48 hrs by propidium iodide stainin-based flow cytometry (reference value: 67.72%); type: functional
HeLa [4] = assay: Induction of apoptosis in human HeLa cells assessed as dead cells at 15 uM after 12 hrs by Anexin-V-FITC/propidium iodide staining-based flow cytometry (reference value: 1.40%); type: functional
HeLa [5] = assay: Induction of cytochrome C release in human HeLa cells assessed as karyopyknosis at 10 to 15 uM after 12 hrs by fluorescence microscopy relative to control; type: functional, cell-based
HeLa [6] = assay: Induction of apoptosis in human HeLa cells assessed as increase in Bax expression at 10 to 15 uM by Western blotting analysis relative to control; type: functional, cell-based
HeLa [7] = assay: Induction of apoptosis in human HeLa cells assessed as late apoptotic cells at 15 uM after 12 hrs by Anexin-V-FITC/propidium iodide staining-based flow cytometry (reference value: 0.04%); type: functional
HeLa [8] = assay: Induction of apoptosis in human HeLa cells assessed as chromatin condensation at 15 uM after 12 to 24 hrs by acridine orange/ethidium bromide staining-based assay; type: functional, cell-based
HeLa [9] = assay: Induction of apoptosis in human HeLa cells assessed as viable cells at 15 uM after 12 hrs by Anexin-V-FITC/propidium iodide staining-based flow cytometry (reference value: 97.2%); type: functional; settings: read-out: Activity
HeLa [10] = assay: Induction of apoptosis in human HeLa cells assessed as caspase-9 activation by spectrophotometry relative to control relative to control; type: functional, cell-based; settings: TDE = time-dependent effect
HeLa [11] = assay: Induction of apoptosis in human HeLa cells assessed as DNA fragmentation at 15 uM after 12 to 24 hrs by TUNEL assay relative to control; type: functional, cell-based
HeLa [12] = assay: Cytotoxicity against human HeLa cells after 48 hrs by MTT assay; type: functional, cell-based
HeLa [13] = assay: Cell cycle arrest in human HeLa cells assessed as accumulation at G2 phase at 10 uM after 48 hrs by propidium iodide stainin-based flow cytometry (reference value: 5.84%); type: functional
HeLa [14] = assay: Induction of apoptosis in human HeLa cells assessed as early apoptotic cells at 10 uM after 12 hrs by Anexin-V-FITC/propidium iodide staining-based flow cytometry (reference value: 1.40%); type: functional
HeLa [15] = assay: Induction of apoptosis in human HeLa cells assessed as change in mitochondrial membrane potential at 15 uM after 12 to 24 hrs by JC-1 staining-based assay relative to control; type: functional, cell-based
HeLa [16] = assay: Induction of apoptosis in human HeLa cells assessed as early apoptotic cells at 15 uM after 12 hrs by Anexin-V-FITC/propidium iodide staining-based flow cytometry (reference value: 1.40%); type: functional
HeLa [17] = assay: Induction of apoptosis in human HeLa cells at 15 uM after 12 to 24 hrs by Hoechst 33258 staining-based assay relative to control; type: functional, cell-based
HeLa [18] = assay: Induction of apoptosis in human HeLa cells assessed as late apoptotic cells at 10 uM after 12 hrs by Anexin-V-FITC/propidium iodide staining-based flow cytometry (reference value: 0.04%); type: functional
HeLa [19] = assay: Induction of apoptosis in human HeLa cells assessed as caspase-3 activation by spectrophotometry relative to control; type: functional, cell-based; settings: TDE = time-dependent effect
HeLa [20] = assay: Induction of apoptosis in human HeLa cells assessed as viable cells at 10 uM after 12 hrs by Anexin-V-FITC/propidium iodide staining-based flow cytometry (reference value: 97.2%); type: functional; settings: read-out: Activity
[21] = Cytotoxicity against human HL7702 cells after 48 hrs by MTT assay; type: functional, cell-based; settings: L02, 48 h
HeLa [22] = assay: Induction of apoptosis in human HeLa cells assessed as reduction in Bcl2 expression by Western blotting analysis relative to control; type: functional, cell-based
HeLa [23] = assay: Induction of apoptosis in human HeLa cells assessed as chromatin fragmentation at 15 uM after 12 to 24 hrs by acridine orange/ethidium bromide staining-based assay relative to control; type: functional, cell-based
HeLa [24] = assay: Induction of apoptosis in human HeLa cells assessed as apoptosis ratio at 10 uM after 12 hrs by Anexin-V-FITC/propidium iodide staining-based flow cytometry (reference value: 1.44%); type: functional
HeLa [25] = assay: Induction of apoptosis in human HeLa cells assessed as increase in caspase-3 expression at 10 to 15 uM by Western blotting analysis relative to control; type: functional, cell-based
HeLa [26] = assay: Cell cycle arrest in human HeLa cells assessed as accumulation at G2 phase at 15 uM after 48 hrs by propidium iodide stainin-based flow cytometry (reference value: 5.84%); type: functional
HeLa [27] = assay: Induction of cytochrome C release in human HeLa cells assessed as nuclei conglomeration at 10 to 15 uM after 12 hrs by fluorescence microscopy relative to control; type: functional, cell-based
NCI-H460 = assay: Cytotoxicity against human NCI-H460 cells after 48 hrs by MTT assay; type: functional, cell-based; settings: NCI-H460, 48 h
HeLa [28] = assay: Cell cycle arrest in human HeLa cells assessed as accumulation at S phase at 15 uM after 48 hrs by propidium iodide stainin-based flow cytometry (reference value: 67.72%); type: functional
HeLa [29] = assay: Induction of apoptosis in human HeLa cells assessed as ROS generation at 10 to 15 uM after 12 hrs by DCF-Da staining-based fluorescence microscopy relative to control; type: functional, cell-based
HeLa [30] = assay: Cell cycle arrest in human HeLa cells assessed as accumulation at G1 phase at 15 uM after 48 hrs by propidium iodide stainin-based flow cytometry (reference value: 31.44%); type: functional
HeLa [31] = assay: Induction of apoptosis in human HeLa cells assessed as increase in cytochrome c expression at 10 to 15 uM by Western blotting analysis relative to control; type: functional, cell-based
MGC-803 = assay: Cytotoxicity against human MGC803 cells after 48 hrs by MTT assay; type: functional, cell-based; settings: MGC-803, 48 h
HeLa [32] = assay: Induction of apoptosis in human HeLa cells assessed as apoptosis ratio at 15 uM after 12 hrs by Anexin-V-FITC/propidium iodide staining-based flow cytometry (reference value: 1.44%); type: functional
HeLa [33] = assay: Induction of apoptosis in human HeLa cells assessed as increase in caspase-8 expression at 10 to 15 uM by Western blotting analysis relative to control; type: functional, cell-based

CC(C)c1ccc2c(c1)C(=O)C[C@H]1[C@](C)(C(=O)N[C@@H](Cc3ccccc3)C(=O)Nc3ccccc3Cl)CCC[C@]21C
Activity (HeLa [1]): 0.677% | Activity (HeLa [2]): 27.79% | Activity (HeLa [3]): 67.41% | Activity (HeLa [4]): 0.612% | Activity (HeLa [5]): Active | Activity (HeLa [6]): Active | Activity (HeLa [7]): 13.7% | Activity (HeLa [8]): Active | viability at 15 µM (HeLa [9]): 64% | Activity (HeLa [10]): tde | Activity (HeLa [11]): Active | IC50 (HeLa [12]): 7.76 µM | Activity (HeLa [13]): 4.8% | Activity (HeLa [14]): 13.6% | Activity (HeLa [15]): Active | Activity (HeLa [16]): 21.8% | Activity (HeLa [17]): Active | Activity (HeLa [18]): 6.93% | Activity (HeLa [19]): tde | viability at 10 µM (HeLa [20]): 78.8% | IC50 [21]: 53.8 µM | Activity (HeLa [22]): Dose-dependent effect | Activity (HeLa [23]): Active | Activity (HeLa [24]): 20.53% | Activity (HeLa [25]): Active | Activity (HeLa [26]): 1.47% | Activity (HeLa [27]): Active | IC50 (NCI-H460): 24.3 µM | Activity (HeLa [28]): 83.05% | Activity (HeLa [29]): Active | Activity (HeLa [30]): 15.49% | Activity (HeLa [31]): Active | IC50 (MGC-803): 9.7 µM | Activity (HeLa [32]): 34.5% | Activity (HeLa [33]): Active
